# Assay results: patent US7344829B2, “Methods for detecting the efficacy of anticancer treatments” (Board of Regents, the University of Texas System, priority 2000, dated 2008)
# What was measured:
# EGF-R-ICD = target: T1, EGF-R-ICD (Homo sapiens, UniProt P00533); test: In vitro kinase filter binding assay, EGF-R intracellular kinase domain; format: biochemical
# T1 construct: EGF-R intracellular kinase domain (EGF-R-ICD) was assayed in 20 mM Tris-HCl
# Experimental: Preparation of Enzymes and Kinase Assays. In vitro enzyme assays using EGF-R (McGlynn et al. 1992a), Abl (Geissler et al. 1992), and c-Src (Geissler et al. 1990) protein tyrosine kinases were performed in 96-well plates as a filter binding assay. Briefly, EGF-R intracellular kinase domain (EGF-R-ICD) was assayed in 20 mM Tris-HCl, pH 7.5, 10 mM MnCl2, 10 μM Na3VO4, 1 mM DTT, 0.1 μCi/assay [γ-^33P]ATP, 0.4 μM ATP, 2 μ/ml poly(Glu,Tyr 4:1) (Sigma P275), 1% DMSO, and 30 ng EGF-R-ICD in a total volume of 30 μl. The His-tagged kinase domain of c-Abl was cloned and expressed in the baculovirus/Sf9 system as described previously (Bhat et al. 1997) and assayed in 20 mM Tris-HCl, pH 7.5, 10 mM MgCl2, 10 μM Na3VO4, 1 mM DTT, 0.06 μCi/assay (=30 μl ) [γ-^32P]ATP, 5 μM ATP, 30 μg/ml poly(Ala,Glu,Lys,Tyr 6:2:5:1) (Sigma P1152), 1% DMSO, and 50 ng c-Abl enzyme. Src kinase (60 μg/ml) was preactivated with 50 μM ATP for 10 min at room temperature, and kinase inhibition was measured in 20 mM Tris-HCl, pH 7.5, 10 mM MgCl2, 10 μM Na3VO4, 1 mM DTT, 0.1 μCi/assay (=30 μl ) [γ-^33P]ATP, 20 μM ATP, 25 μg/ml poly(Glu,Tyr 4:1), 1% DMSO, and 10 ng c-Src enzyme.
# (§1) GST-fused kinase domains of Kdr, Flt-1, Flk, Tek, c-Met, and c-Kit were expressed in baculovirus and purified over glutathione-Sepharose. Kinase inhibition was measured by detecting the decrease in phosphorylation of poly(Glu,Tyr 4:1) essentially as previously described for EGF-R. Each kinase was incubated under optimized buffer conditions in 20 mM Tris-HCl, pH 7.5, 1–3 mM MnCl2, 3–10 mM MgCl2, 10 μM Na3VO4, 1 mM DTT, 0.2 μCi/[γ-^33P]ATP, 1–8 μM ATP, 3–8 μg/ml poly(Glu,Tyr 4:1), 1% DMSO in a total volume of 30 μl in the presence or absence of PKI166 for 10 min at ambient temperature. Reactions were terminated by adding 10 μl of 250 mM EDTA, and the reaction mixture was transferred onto an Immobilon-PVDG membrane (Millipore, Bedford, Mass.). Following a washing (0.5% H3PO4), a soaking in EtOH, and drying, filters were counted in a liquid scintillation counter. IC50 values for PKI166 were calculated by linear regression analysis of the percentage inhibition. Inhibition of Cdc2/cyclin B protein kinase (Arion et al. 1988; Partanen et al. 1991) and PKC (McGlynn et al. 1992b) was assayed as previously described.
# KDR = target: T2, KDR (Homo sapiens, UniProt P35968); test: GST-fused kinase domain assay, KDR; format: biochemical
# T2 construct: GST-fused kinase domains of Kdr, Flt-1, Flk, Tek, c-Met, and c-Kit were expressed in baculovirus; GST; made in house
# Experimental: as §1
# Flt-1 = target: T3, Flt-1 (Homo sapiens, UniProt P17948); test: GST-fused kinase domain assay, Flt-1; format: biochemical; conditions: Flt-1, text
# T3 construct: GST-fused kinase domains of Kdr, Flt-1, Flk, Tek, c-Met, and c-Kit were expressed in baculovirus; GST; made in house
# T3 sequence (P17948 827-1158 limits assumed): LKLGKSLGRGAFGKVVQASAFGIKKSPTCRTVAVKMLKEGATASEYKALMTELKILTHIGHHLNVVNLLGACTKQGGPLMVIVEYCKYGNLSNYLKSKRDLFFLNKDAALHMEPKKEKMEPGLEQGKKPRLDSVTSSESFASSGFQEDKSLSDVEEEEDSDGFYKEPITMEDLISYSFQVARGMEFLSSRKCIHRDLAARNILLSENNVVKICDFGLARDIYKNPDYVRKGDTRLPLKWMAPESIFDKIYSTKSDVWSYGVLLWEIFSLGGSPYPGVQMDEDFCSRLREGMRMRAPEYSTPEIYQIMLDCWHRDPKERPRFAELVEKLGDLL
# Experimental: as §1
# Flk = target: T4, Flk (Mus musculus, UniProt P35918); test: GST-fused kinase domain assay, Flk; format: biochemical
# T4 construct: GST-fused kinase domains of Kdr, Flt-1, Flk, Tek, c-Met, and c-Kit were expressed in baculovirus; GST; made in house
# Experimental: as §1
# c-Kit = target: T5, c-Kit (Homo sapiens, UniProt P10721); test: GST-fused kinase domain assay, c-Kit; format: biochemical
# T5 construct: GST-fused kinase domains of Kdr, Flt-1, Flk, Tek, c-Met, and c-Kit were expressed in baculovirus; GST; made in house
# Experimental: as §1
# [1] = target: T6, phosphorylated (activated) EGF-R (Mus musculus, UniProt Q01279); test: Activated EGF-R in UV-2237 fibrosarcoma tumors and skin/hair follicles of mice (immunohistochemistry); format: in vivo, C3H/HeN mice; conditions: 6 administrations
# T6 construct: from tissue; host or cells: UV-2237 fibrosarcoma tumours and dorsal skin/hair follicles of C3H/HeN mice
# Experimental: C3H/HeN mice were injected subcutaneously with UV-2237 fibrosarcoma cells. Seven days after the implantation, the mice were given 3 weekley oral administrations of PBS, 10 mg/kg PKI166, 50 mg/kg PKI166, and 100 mg/kg PKI166. The mice were killed on day 15 of treatment (6 oral administrations), i.e., one day after the last oral administration.
# The tumors were harvested and processed for immunohistochemistry. The contralateral dorsal skin and hair were excised and prepare for immunohistochemistry. The tumors and skin/hair samples were sectioned and stained with antibodies against the EGF-R and antibodies against the phosphorylated (activated) EGF-R. The results are shown in FIG. 8.
# T1 sequence (P00533 669-1210 limits assumed): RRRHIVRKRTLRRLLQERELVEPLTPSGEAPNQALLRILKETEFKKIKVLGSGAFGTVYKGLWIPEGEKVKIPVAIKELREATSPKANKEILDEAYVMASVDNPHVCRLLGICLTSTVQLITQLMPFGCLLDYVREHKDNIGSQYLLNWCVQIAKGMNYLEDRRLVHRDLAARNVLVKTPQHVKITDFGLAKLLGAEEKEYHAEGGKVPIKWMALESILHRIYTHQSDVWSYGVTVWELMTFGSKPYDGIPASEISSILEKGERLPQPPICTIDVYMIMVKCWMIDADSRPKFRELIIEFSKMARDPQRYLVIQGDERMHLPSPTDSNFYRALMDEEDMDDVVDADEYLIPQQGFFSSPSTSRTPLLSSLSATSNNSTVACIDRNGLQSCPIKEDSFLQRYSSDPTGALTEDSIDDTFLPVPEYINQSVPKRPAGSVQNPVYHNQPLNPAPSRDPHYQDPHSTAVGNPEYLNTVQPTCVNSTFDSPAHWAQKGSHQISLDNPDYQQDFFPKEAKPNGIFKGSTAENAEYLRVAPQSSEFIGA
# T2 sequence (P35968 834-1162 limits assumed): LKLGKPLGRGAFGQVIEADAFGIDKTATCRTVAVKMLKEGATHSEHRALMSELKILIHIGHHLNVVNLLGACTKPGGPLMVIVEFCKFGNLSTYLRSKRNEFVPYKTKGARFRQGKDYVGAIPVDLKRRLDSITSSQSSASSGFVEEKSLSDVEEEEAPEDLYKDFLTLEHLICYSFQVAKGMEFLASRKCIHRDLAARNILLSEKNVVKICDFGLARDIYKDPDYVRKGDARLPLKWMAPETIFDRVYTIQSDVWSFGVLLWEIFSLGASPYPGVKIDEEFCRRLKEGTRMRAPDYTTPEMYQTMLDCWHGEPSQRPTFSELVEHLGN
# T4 sequence (P35918 832-1160 limits assumed): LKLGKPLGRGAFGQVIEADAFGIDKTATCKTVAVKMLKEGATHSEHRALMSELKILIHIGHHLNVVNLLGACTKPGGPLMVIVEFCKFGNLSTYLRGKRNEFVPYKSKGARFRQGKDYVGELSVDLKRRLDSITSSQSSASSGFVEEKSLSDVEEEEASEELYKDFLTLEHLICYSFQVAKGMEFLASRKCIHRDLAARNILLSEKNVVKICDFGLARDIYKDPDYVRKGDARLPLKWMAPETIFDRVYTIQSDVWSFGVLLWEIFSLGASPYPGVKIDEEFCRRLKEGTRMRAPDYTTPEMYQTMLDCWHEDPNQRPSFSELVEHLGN
# T5 sequence (P10721 589-937 limits assumed): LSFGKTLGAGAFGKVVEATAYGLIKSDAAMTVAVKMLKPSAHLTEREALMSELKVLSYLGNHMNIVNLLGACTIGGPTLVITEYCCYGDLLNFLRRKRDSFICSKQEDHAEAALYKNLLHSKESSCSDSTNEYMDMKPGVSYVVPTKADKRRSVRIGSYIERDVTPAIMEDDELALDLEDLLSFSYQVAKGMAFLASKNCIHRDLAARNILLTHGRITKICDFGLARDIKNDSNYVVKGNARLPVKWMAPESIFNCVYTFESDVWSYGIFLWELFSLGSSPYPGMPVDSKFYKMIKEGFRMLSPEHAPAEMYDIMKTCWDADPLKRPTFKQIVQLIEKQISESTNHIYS
smiles,measurement,setting,value
"C[C@@H](Nc1ncnc2[nH]c(-c3ccc(O)cc3)cc12)c1ccccc1 [PKI166, 4-(R)-phenethylamino-6-(hydroxyl) phenyl-7H-pyrrolo[2.3-d]-pyrimidine]",mode of inhibition of EGF-R kinase,EGF-R-ICD; enzyme kinetic studies,ATP-competitive inhibition
same,IC50,EGF-R-ICD; intracellular domain (ICD) of the EGF-R kinase,0.0007 µM
same,selectivity factor for inhibition of the EGF-R ICD,EGF-R-ICD; versus other tyrosine kinases (Traxler et al. 1999),> 40
same,selectivity ratio,EGF-R-ICD; with respect to inhibition of serine/threonine kinases PKC-α and Cdc2/cyclin B,> 3000
same,IC50,KDR,0.327 µM
same,IC50,Flt-1,0.962 µM
same,IC50,Flk,> 1 µM
same,IC50,c-Kit,2.21 µM
same,Expression of activated EGF-R in tumors or skin/hair follicles,[1]; oral 10 mg/kg,did not decrease
same,Phosphorylation of EGF-R in tumors and skin/hair follicles,[1]; oral 50 mg/kg or 100 mg/kg,inhibited phosphorylation
